Experimental data: ChEMBL document CHEMBL1201861, “Genomics of Drug Sensitity in Cancer screening data, Wellcome Trust Sanger Institute”
“And” between values parts separate entries of the source, which are not always exact repeats. Equal entries are not always repeated.

Assays:
Test in all cases: cells
COLO-829 = assay type: functional, cell-based, Homo sapiens
Description: SANGER: Inhibition of human COLO-829 cell growth in a cell viability assay.

CTV-1 = assay type: functional, cell-based; details: Homo sapiens
Description: SANGER: Inhibition of human CTV-1 cell growth in a cell viability assay.

Ca-Ski = assay type: functional, cell-based; details: Homo sapiens
Description: SANGER: Inhibition of human Ca-Ski cell growth in a cell viability assay.

Calu-3 = assay type: functional, cell-based, Homo sapiens
Description: SANGER: Inhibition of human Calu-3 cell growth in a cell viability assay.

DBTRG-05MG = assay type: functional, cell-based, Homo sapiens
Description: SANGER: Inhibition of human DBTRG-05MG cell growth in a cell viability assay.

DoTc2-4510 = assay type: functional, cell-based, Homo sapiens
GR-ST = assay type: functional, cell-based; details: Homo sapiens
Description: SANGER: Inhibition of human GR-ST cell growth in a cell viability assay.

HCE-4 = assay type: functional, cell-based, Homo sapiens
Description: SANGER: Inhibition of human HCE-4 cell growth in a cell viability assay.

HT-29 = assay type: functional, cell-based, Homo sapiens
Description: SANGER: Inhibition of human HT-29 cell growth in a cell viability assay.

HTC-C3 = assay type: functional, cell-based, Homo sapiens
Description: SANGER: Inhibition of human HTC-C3 cell growth in a cell viability assay.

K562 = assay type: functional, cell-based; details: Homo sapiens
Description: SANGER: Inhibition of human K-562 cell growth in a cell viability assay.

KARPAS-45 = assay type: functional, cell-based; details: Homo sapiens
Description: SANGER: Inhibition of human KARPAS-45 cell growth in a cell viability assay.

KE-37 = assay type: functional, cell-based; details: Homo sapiens
Description: SANGER: Inhibition of human KE-37 cell growth in a cell viability assay.

KMOE-2 = assay type: functional, cell-based; details: Homo sapiens
Description: SANGER: Inhibition of human KMOE-2 cell growth in a cell viability assay.

KU812 cell line = assay type: functional, cell-based; details: Homo sapiens
Description: SANGER: Inhibition of human KU812 cell growth in a cell viability assay.

LB2241-RCC = assay type: functional, cell-based, Homo sapiens
Description: SANGER: Inhibition of human LB2241-RCC cell growth in a cell viability assay.

LN-405 = assay type: functional, cell-based, Homo sapiens
Description: SANGER: Inhibition of human LN-405 cell growth in a cell viability assay.

M059J = assay type: functional, cell-based, Homo sapiens
Description: SANGER: Inhibition of human M059J cell growth in a cell viability assay.

MC-IXC = assay type: functional, cell-based, Homo sapiens
Description: SANGER: Inhibition of human MC-IXC cell growth in a cell viability assay.

MHH-NB-11 = assay type: functional, cell-based, Homo sapiens
Description: SANGER: Inhibition of human MHH-NB-11 cell growth in a cell viability assay.

MLMA = assay type: functional, cell-based, Homo sapiens
Description: SANGER: Inhibition of human MLMA cell growth in a cell viability assay.

MPP-89 = assay type: functional, cell-based, Homo sapiens
Description: SANGER: Inhibition of human MPP-89 cell growth in a cell viability assay.

MZ1-PC = assay type: functional, cell-based, Homo sapiens
Description: SANGER: Inhibition of human MZ1-PC cell growth in a cell viability assay.

NCI-H1792 = assay type: functional, cell-based, Homo sapiens
Description: SANGER: Inhibition of human NCI-H1792 cell growth in a cell viability assay.

NCI-H23 = assay type: functional, cell-based, Homo sapiens
Description: SANGER: Inhibition of human NCI-H23 cell growth in a cell viability assay.

NCI-H2452 = assay type: functional, cell-based, Homo sapiens
Description: SANGER: Inhibition of human NCI-H2452 cell growth in a cell viability assay.

NCI-H650 = assay type: functional, cell-based, Homo sapiens
Description: SANGER: Inhibition of human NCI-H650 cell growth in a cell viability assay.

NH-12 = assay type: functional, cell-based, Homo sapiens
Description: SANGER: Inhibition of human NH-12 cell growth in a cell viability assay.

NMC-G1 = assay type: functional, cell-based, Homo sapiens
Description: SANGER: Inhibition of human NMC-G1 cell growth in a cell viability assay.

OE33 = assay type: functional, cell-based, Homo sapiens
Description: SANGER: Inhibition of human OE33 cell growth in a cell viability assay.

PC-14 = assay type: functional, cell-based, Homo sapiens
Description: SANGER: Inhibition of human PC-14 cell growth in a cell viability assay.

SF-295 = assay type: functional, cell-based, Homo sapiens; details: read-out: IC50
Description: SANGER: Inhibition of human SF295 cell growth in a cell viability assay.

SK-LU-1 = assay type: functional, cell-based, Homo sapiens
Description: SANGER: Inhibition of human SK-LU-1 cell growth in a cell viability assay.

SK-PN-DW = assay type: functional, cell-based; details: Homo sapiens
Description: SANGER: Inhibition of human SK-PN-DW cell growth in a cell viability assay.

SN12C = assay type: functional, cell-based, Homo sapiens
Description: SANGER: Inhibition of human SN12C cell growth in a cell viability assay.

SNU-C2B = assay type: functional, cell-based, Homo sapiens
Description: SANGER: Inhibition of human SNU-C2B cell growth in a cell viability assay.

SW13 = assay type: functional, cell-based, Homo sapiens
Description: SANGER: Inhibition of human SW13 cell growth in a cell viability assay.

SW684 = assay type: functional, cell-based, Homo sapiens
Description: SANGER: Inhibition of human SW684 cell growth in a cell viability assay.

SW837 = assay type: functional, cell-based, Homo sapiens
Description: SANGER: Inhibition of human SW837 cell growth in a cell viability assay.

T98G = assay type: functional, cell-based, Homo sapiens
Description: SANGER: Inhibition of human T98G cell growth in a cell viability assay.

TCC-SUP = assay type: functional, cell-based, Homo sapiens
Description: SANGER: Inhibition of human TCCSUP cell growth in a cell viability assay.

TE-1 = assay type: functional, cell-based, Homo sapiens
Description: SANGER: Inhibition of human TE-1 cell growth in a cell viability assay.

647-V = assay type: functional, cell-based, Homo sapiens
Description: SANGER: Inhibition of human 647-V cell growth in a cell viability assay.

8305C = assay type: functional, cell-based, Homo sapiens
Description: SANGER: Inhibition of human 8305C cell growth in a cell viability assay.

8505C = assay type: functional, cell-based, Homo sapiens
Description: SANGER: Inhibition of human 8505C cell growth in a cell viability assay.

A 172 = assay type: functional, cell-based, Homo sapiens
Description: SANGER: Inhibition of human A172 cell growth in a cell viability assay.

A2058 = assay type: functional, cell-based; details: Homo sapiens
Description: SANGER: Inhibition of human A2058 cell growth in a cell viability assay.

BHT-101 = assay type: functional, cell-based, Homo sapiens
Description: SANGER: Inhibition of human BHT-101 cell growth in a cell viability assay.

CAL-39 = assay type: functional, cell-based, Homo sapiens
Description: SANGER: Inhibition of human CAL-39 cell growth in a cell viability assay.

CAL-54 = assay type: functional, cell-based, Homo sapiens
Description: SANGER: Inhibition of human CAL-54 cell growth in a cell viability assay.

TGW = assay type: functional, cell-based; details: Homo sapiens
Description: SANGER: Inhibition of human TGW cell growth in a cell viability assay.

TK-10 = assay type: functional, cell-based, Homo sapiens
Description: SANGER: Inhibition of human TK10 cell growth in a cell viability assay.

## Cc1cc([C@@H](C)Nc2ccccc2C(=O)O)c2nc(N3CCOCC3)cc(=O)n2c1 [AZD-6482]
COLO-829; colo-829
  IC50: > 5120 nM
CTV-1
  IC50: > 5120 nM
Ca-Ski
  IC50: 1930 nM
Calu-3; calu-3
  IC50: 3440 nM and > 5120 nM
DBTRG-05MG; dbtrg-05mg
  IC50: > 5120 nM
DoTc2-4510; dotc2-4510
  IC50: > 5120 nM
GR-ST
  IC50: > 5120 nM
HCE-4; hce-4
  IC50: > 5120 nM
HT-29; ht-29
  IC50: > 5120 nM
HTC-C3; Homo sapiens, HTC-C3
  IC50: > 5120 nM
HTC-C3; htc-c3
  IC50: > 5120 nM
K562
  IC50: > 5120 nM
KARPAS-45
  IC50: 3300 nM
KE-37
  IC50: > 5120 nM
KMOE-2
  IC50: > 5120 nM
KU812 cell line
  IC50: 1600 nM
LB2241-RCC; lb2241-rcc
  IC50: > 5120 nM and 1320 nM
LN-405; Homo sapiens, LN-405
  IC50: 2440 nM
LN-405; ln-405
  IC50: 2900 nM
M059J; Homo sapiens, M059J
  IC50: > 5120 nM
M059J; m059j
  IC50: > 5120 nM
MC-IXC; Homo sapiens, MC-IXC
  IC50: > 5120 nM
MC-IXC; mc-ixc
  IC50: > 5120 nM
MHH-NB-11; mhh-nb-11
  IC50: > 5120 nM
MLMA; Homo sapiens, MLMA
  IC50: 3720 nM
MLMA; mlma
  IC50: 4880 nM
MPP-89; mpp-89
  IC50: > 5120 nM
MZ1-PC; mz1-pc
  IC50: > 5120 nM
NCI-H1792; nci-h1792
  IC50: > 5120 nM
NCI-H23; nci-h23
  IC50: > 5120 nM
NCI-H2452; nci-h2452
  IC50: > 5120 nM
NCI-H650; nci-h650
  IC50: 1300 nM and > 5120 nM
NH-12; Homo sapiens, NH-12
  IC50: > 5120 nM
NH-12; nh-12
  IC50: > 5120 nM
NMC-G1; Homo sapiens, NMC-G1
  IC50: > 5120 nM
NMC-G1; nmc-g1
  IC50: > 5120 nM
OE33; oe33
  IC50: > 5120 nM
PC-14; pc-14
  IC50: > 5120 nM
SF-295; sf-295
  IC50: 2770 nM and > 5120 nM
SK-LU-1; sk-lu-1
  IC50: > 5120 nM
SK-PN-DW
  IC50: > 5120 nM
SN12C; sn12c
  IC50: > 5120 nM
SNU-C2B; Homo sapiens, SNU-C2B
  IC50: > 5120 nM
SNU-C2B; snu-c2b
  IC50: > 5120 nM
SW13; Homo sapiens, SW13
  IC50: > 5120 nM
SW13; sw13
  IC50: > 5120 nM
SW684; Homo sapiens, SW684
  IC50: > 5120 nM
SW684; sw684
  IC50: > 5120 nM
SW837; sw837
  IC50: > 5120 nM
T98G; Homo sapiens, T98G
  IC50: > 5120 nM
T98G; t98g
  IC50: > 5120 nM
TCC-SUP; tcc-sup
  IC50: > 5120 nM
TE-1; Homo sapiens, TE-1
  IC50: > 5120 nM
TE-1; te-1
  IC50: > 5120 nM
647-V; 647-v
  IC50: > 5120 nM
8305C; 8305c
  IC50: > 5120 nM
8505C; 8505c
  IC50: > 5120 nM
A 172; a 172
  IC50: > 5120 nM
A2058
  IC50: > 5120 nM
BHT-101; bht-101
  IC50: > 5120 nM and 1160 nM
CAL-39; cal-39
  IC50: 2000 nM and > 5120 nM
CAL-54; cal-54
  IC50: > 5120 nM and 1250 nM
TGW
  IC50: > 5120 nM
TK-10; tk-10
  IC50: > 5120 nM

## CN(c1ncccc1CNc1nc(Nc2ccc3c(c2)CC(=O)N3)ncc1C(F)(F)F)S(C)(=O)=O [PF-00562271]
COLO-829; Homo sapiens, COLO-829
  IC50: 752 nM
CTV-1
  IC50: > 2560 nM
Ca-Ski
  IC50: > 2560 nM
Calu-3; Homo sapiens, Calu-3
  IC50: > 2560 nM
DBTRG-05MG; Homo sapiens, DBTRG-05MG
  IC50: > 2560 nM
DoTc2-4510; Homo sapiens, DoTc2-4510
  IC50: > 2560 nM
GR-ST
  IC50: > 2560 nM
HCE-4; Homo sapiens, HCE-4
  IC50: > 2560 nM
HT-29; Homo sapiens, HT-29
  IC50: > 2560 nM
HTC-C3; Homo sapiens, HTC-C3
  IC50: > 2560 nM
K562
  IC50: > 2560 nM
KARPAS-45
  IC50: > 2560 nM
KE-37
  IC50: > 2560 nM
KMOE-2
  IC50: > 2560 nM
KU812 cell line
  IC50: > 2560 nM
LB2241-RCC; Homo sapiens, LB2241-RCC
  IC50: > 2560 nM
LN-405; Homo sapiens, LN-405
  IC50: > 2560 nM
M059J; Homo sapiens, M059J
  IC50: > 2560 nM
MC-IXC; Homo sapiens, MC-IXC
  IC50: > 2560 nM
MHH-NB-11; Homo sapiens, MHH-NB-11
  IC50: 2130 nM
MLMA; Homo sapiens, MLMA
  IC50: > 2560 nM
MPP-89; Homo sapiens, MPP-89
  IC50: > 2560 nM
MZ1-PC; Homo sapiens, MZ1-PC
  IC50: 1620 nM
NCI-H1792; Homo sapiens, NCI-H1792
  IC50: > 2560 nM
NCI-H23; Homo sapiens, NCI-H23
  IC50: > 2560 nM
NCI-H2452; Homo sapiens, NCI-H2452
  IC50: > 2560 nM
NCI-H650; Homo sapiens, NCI-H650
  IC50: 832 nM
NH-12; Homo sapiens, NH-12
  IC50: > 2560 nM
NMC-G1; Homo sapiens, NMC-G1
  IC50: > 2560 nM
OE33; Homo sapiens, OE33
  IC50: > 2560 nM
PC-14; Homo sapiens, PC-14
  IC50: > 2560 nM
SF-295; Homo sapiens, SF-295
  IC50: > 2560 nM
SK-LU-1; Homo sapiens, SK-LU-1
  IC50: > 2560 nM
SK-PN-DW
  IC50: > 2560 nM
SN12C; Homo sapiens, SN12C
  IC50: > 2560 nM
SNU-C2B; Homo sapiens, SNU-C2B
  IC50: > 2560 nM
SW13; Homo sapiens, SW13
  IC50: > 2560 nM
SW684; Homo sapiens, SW684
  IC50: > 2560 nM
SW837; Homo sapiens, SW837
  IC50: > 2560 nM
T98G; Homo sapiens, T98G
  IC50: > 2560 nM
TCC-SUP; Homo sapiens, TCC-SUP
  IC50: > 2560 nM
TE-1; Homo sapiens, TE-1
  IC50: > 2560 nM
647-V; Homo sapiens, 647-V
  IC50: > 2560 nM
8305C; Homo sapiens, 8305C
  IC50: 1100 nM
8505C; Homo sapiens, 8505C
  IC50: > 2560 nM
A 172; Homo sapiens, A 172
  IC50: > 2560 nM
A2058
  IC50: > 2560 nM
BHT-101; Homo sapiens, BHT-101
  IC50: > 2560 nM
CAL-39; Homo sapiens, CAL-39
  IC50: 2420 nM
CAL-54; Homo sapiens, CAL-54
  IC50: > 2560 nM
TGW
  IC50: > 2560 nM
TK-10; Homo sapiens, TK-10
  IC50: > 2560 nM
